# Results reported in PMC3527569, “Anti-Inflammatory and Vasoprotective Activity of a Retroviral-Derived Peptide, Homologous to Human Endogenous Retroviruses: Endothelial Cell Effects” (PLoS ONE, 2012).
# “And” between values parts separate entries of the source, which are not always exact repeats. Equal values may be shown once. “Also recorded” adds a separate entry of the source. Where a SMILES comes first, the peptide text is derived from it. Bridges are numbered along the chain shown (N, C = ends). Roman numbers before positions name the chains, in order.
# Tests used:
# [1] = mice; data not shown
# [2] = system: paw inflammation; experiment: Carrageenan-induced paw inflammation in mice; format: in vivo, mouse; conditions: compared with peritonitis model; data not shown
# [3] = system: blood leukocyte and platelet counts; experiment: Blood cell counts (WBC, PLT) in mouse carrageenan DIC model; format: in vivo, mouse (CD-1); conditions: 245 nmol i.p. 18 h before carrageenan
# Method: (§1) Groups of 10 male CD-1 mice were injected i.p. with 0.25 ml of either vehicle (PBS) or peptide in vehicle at varying times prior to the i.p. injection of 1.0 ml of carrageenan (0.45% [w/v] in PBS; Sigma). In experiments where serum cytokine levels were determined, groups of 5 mice were euthanized at 1-, 2-, 4-, 8-, and 24-h post injection of carrageenan, blood collected by cardiac puncture into heparinized syringes, and the resultant plasma stored at −80°C until assayed by ELISA. […] At 1-, 2-, 4-, and 24-h post injection of carrageenan, five mice from each group were euthanized and heparinized blood samples collected from the heart using heparinized syringes for subsequent determinations of WBC (white blood cell) counts, RBC (red blood cell) counts, or PLT (platelet) counts.
# [4] = system: iNOS (inducible nitric oxide synthase) mRNA; experiment: RT-PCR of iNOS mRNA in HUVEC; format: cell-based, human; conditions: 50 µM peptide, 3 h, 37°C, quiescent HUVEC, RT-PCR
# Method: (§2) Cells were cultured with various concentrations of test materials, either with or without stimulus, for varying times. The cells were collected, washed and total RNA isolated using the RNeasy Mini Kit (Qiagen; Valencia, CA). Following isolation the RNA was treated with 7 units of DNase I according to the RNase-Free DNase Set (Qiagen; Valencia, CA) protocol. Using these procedures we usually obtained ∼50 µg of total RNA/10^7 cells. cDNA was prepared from the isolated mRNAs and RT-PCR performed on the target cytokines/chemokines/growth factors using appropriate primer pairs and a control primer pair for β-actin (all from R & D Systems; Minneapolis, MN). RT-PCR was generally performed for 30 cycles for β-actin and 35–45 cycles for iNOS and VEGF.
# [5] = system: systolic blood pressure; experiment: SHR rat hypertension model (tail cuff); format: in vivo
# Method: As part of a general pharmacological screen, MN10021 was evaluated in a rat model of hypertension by MDS-PanLabs (Bothell, WA). […] Blood pressure measurements were made by tail cuff at 1, 2, and 4 h post administration of test compounds. A decrease of ≥10% of the baseline systolic blood pressure is considered significant in this assay.
# [6] = system: dermal vascular leak; experiment: Reverse passive Arthus reaction, dermal vascular leak; format: in vivo, guinea pig (Hartley)
# Method: Eighteen hours later both flanks of the animals were shaved and 6.25 or 12.5 µl of rabbit anti-BSA antiserum was injected intradermally (i.d.) at two sites, one on each flank. The animals were then injected i.v. with 1 ml of PBS containing BSA (1 mg/ml) and Evans Blue dye (2 mg/ml; Sigma; St. Louis, MO). Six hours later the animals were euthanized, the skin removed, and the level of induration determined as the diameter (mm) of the extravasation for each site measured on the ventral surface of the skin.
# [7] = system: endothelial nitric oxide synthase (eNOS) mRNA; experiment: RT-PCR of eNOS mRNA in HUVEC; format: cell-based, human; conditions: data not shown
# Method: as §2
# [8] = system: carrageenan-induced DIC; experiment: Mouse carrageenan-induced DIC model, lethality; format: in vivo, mouse (CD-1)
# Method: as §1
# [9] = system: dengue virus; experiment: Vascular leak in liver of mice injected with dengue virus; parameters: species or system mouse; conditions: 1 µg intraperitoneal; dengue virus i.v.; preliminary in vivo studies
# [10] = reason why binding studies were performed at 37°C
# [11] = system: HUVEC; experiment: TNF-α-induced necrosis in HUVEC (Cell Death Detection ELISA, supernatant); format: cell-based, human; conditions: HUVEC pretreated 3 h with 6.25-50 µM peptide, TNF-α 100 ng/ml, overnight
# Method: Apoptosis was measured in HUVEC using the Cell Death Detection ELISA^PLUS kit (Roche Diagnostics; Indianapolis, IN) according to the manufacturer's instructions. This assay is based on a quantitative sandwich-enzyme-immunoassay using mouse monoclonal antibodies directed against both DNA and histones, respectively. It allows the specific determination of mono- and oligonucleosomes in the cytoplasmic fraction of cell lysates (apoptosis) and in the supernatant of dying cells (necrosis). The apoptotic index (AI) was calculated as
# where treatment refers to use of a known apoptosis- or necrosis-inducing agent (staurosporine, TNF-α).
# [12] = system: TNF-α; experiment: Plasma TNF-α in mouse carrageenan DIC model (ELISA); format: in vivo, mouse (CD-1); conditions: 1 mg (245 nmol) i.p. 18 h before carrageenan, over 24 h, groups of 5 mice
# Method: as §1
# Cytokine measurements of serum samples from MN10021-treated mice were performed by sandwich ELISA assays (R & D systems) according to the manufacturer’s instructions for use of its kits with sera samples.
# [13] = system: inflammatory accumulation of monocytes/macrophages; experiment: Mouse NaIO4-induced inflammatory peritonitis model; format: in vivo, mouse (CD-1); conditions: doses as high as 40 µg (10 nmol)
# Method: Effects of test compounds on the inflammatory accumulation of monocytes/macrophages or neutrophils in vivo were determined using a mouse peritonitis model. Briefly, groups of five 6–8 week old CD-1 outbred mice (Charles River; Raleigh, NC) were injected intraperitoneally (i.p.) with 1.0 ml of a sterile inflammatory stimulus (NaIO4; 5 mM in sterile isotonic saline; Sigma; St. Louis, MO). This procedure results in a dramatic accumulation of neutrophils in the peritoneal cavity which peaks at 6–8 h post injection, followed by an accumulation of monocytes/macrophages which peaks at 48–72 h post injection. Mice were euthanized by CO2 asphyxiation at either 6 h (for neutrophils) or 48 h (for monocyte/macrophages), the peritoneal cavities lavaged with two 10-ml washes of heparinized (10 u/ml; Sigma; St. Louis, MO) HBSS containing 0.1% (w/v) BSA, the washes pooled, and total and differential cells counts determined for each pooled cell suspension. Each test material was evaluated in a group of five mice, each of which was injected subcutaneously in the thigh with 0.2 ml of test material in HBSS 24 h prior to the i.p. injection of the inflammatory stimulus.
# [14] = 100 mg/kg orally (gavage), groups of 3 SHR rats, tail cuff, vs 0 h value
compound,measurement,setting,value
CC(C)C[C@H](NC(=O)CNC(=O)CNC(=O)[C@H](CCC(=O)O)NC(=O)[C@H](CCCCN)NC(=O)[C@H](CC(C)C)NC(=O)[C@H](Cc1ccccc1)NC(=O)[C@H](CC(C)C)NC(=O)[C@H](CC(C)C)NC(=O)[C@H](CC(=O)O)NC(=O)[C@H](CC(C)C)NC(=O)CNC(=O)[C@H](CCCNC(=N)N)NC(=O)[C@H](CCCNC(=N)N)NC(=O)[C@H](CC(N)=O)NC(=O)[C@H](CCC(N)=O)NC(=O)[C@@H](N)CC(C)C)C(=O)N[C@@H](CSSC[C@H](NC(=O)[C@H](CC(C)C)NC(=O)CNC(=O)CNC(=O)[C@H](CCC(=O)O)NC(=O)[C@H](CCCCN)NC(=O)[C@H](CC(C)C)NC(=O)[C@H](Cc1ccccc1)NC(=O)[C@H](CC(C)C)NC(=O)[C@H](CC(C)C)NC(=O)[C@H](CC(=O)O)NC(=O)[C@H](CC(C)C)NC(=O)CNC(=O)[C@H](CCCNC(=N)N)NC(=O)[C@H](CCCNC(=N)N)NC(=O)[C@H](CC(N)=O)NC(=O)[C@H](CCC(N)=O)NC(=O)[C@@H](N)CC(C)C)C(=O)O)C(=O)O [MN10021] (I: H-LQNRRGLDLLFLKEGGLC-OH / II: H-LQNRRGLDLLFLKEGGLC-OH; disulfide I:18-II:18),time to detection in the blood after s.c. injection,[1],≤ 15 min
same,activity in carrageenan-induced paw inflammation,[2],equally active
same,effect on carrageenan-induced leukocytosis (WBC),[3],prevented much of the leukocytosis
same,"PLT count of treated mice, percent of normal",[3]; over the 24 h period,approximately 50%
same,induction of mRNA for iNOS in HUVEC,[4],induces mRNA for iNOS
same,"decreases in blood pressure at the three time points (1, 2, 4 h)","[5]; 30 mg/kg orally, data not shown",3–4%
same,decrease in blood pressure at 1 h,[5]; [14],12%
same,decrease in blood pressure at 2 h,[5]; [14],15%
same,decrease in blood pressure at 4 h,[5]; [14],13%
same,lowering of blood pressure within 1 h,[5]; orally-administered (abstract),10–15%
same,"block of vascular leak, challenge 6.25 µl anti-BSA","[6]; 250 or 500 µg s.c. 18 h before challenge, Evans Blue extravasation diameter at 6 h",completely blocked
same,"block of vascular leak, challenge 12.5 µl anti-BSA","[6]; only the highest dose (500 µg) s.c. 18 h before challenge, Evans Blue extravasation at 6 h",completely blocked
same,effect on expression of mRNA for eNOS,[7],Neither MN10021 nor DUK0005 affected
same,protection in lethal model of carrageenan-induced DIC,[8]; 73 nmol,completely protects
same,mice protected from lethal carrageenan,"[8]; 30 µg (7 nmol) i.p. 18 h prior to carrageenan, groups of 10 CD-1 mice",approximately 50%
same,survival time after carrageenan,"[8]; 1 mg (245 nmol) i.p. before i.p. carrageenan, 120 h longest time observed",at least 120 h
same,effect on vascular leak in the liver of dengue virus-injected mice,[9],inhibit the vascular leak
same,solubility at lower temperatures,[10],insolubility
same,protection against TNF-α-induced necrosis,[11],significant protection; also recorded: block almost completely
same,block of carrageenan-induced increase in plasma TNF-α,[12],~85% and > 80%
H-LGGEKLFLLDGRNQLC-OH (disulfide (positions not given here)) [MN20050],anti-inflammatory activity in peritonitis model,[13],no anti-inflammatory activity
